# Measurements reported in US20240277677A1, “SALT FORM AND CRYSTAL FORM THEREOF OF SULFONYLUREA RING SUBSTITUTED COMPOUND” (priority 2022, published 2024).
# Where two headings read alike, the source gives them in different places.
# How the values were obtained:
# [1] = test system: Escherichia coli ATCC 25922; test: Spontaneous drug resistance mutation rate (FOR); type: cell-based; settings: for Drug resistance frequency (24 h) / Drug resistance frequency (48 h) / Drug resistance frequency (72 h): selected total colony count 2.60E+08 CFU
# Description: Escherichia coli ATCC 25922 was used to carry out a micro-liquid dilution method according to the Institute of Clinical and Laboratory Standard (CLSI) requirements, the colony for selection with a total colony count of 2.60E+08CFU in Colony-Forming Units (CFU) was selected, […], 4, 8, 16, 32-fold of minimum inhibitory concentration (MIC), and the drug resistance frequency was calculated.
# [2] = Solid stability study of the crystal form A (high temperature, high humidity, light; XRPD, appearance, content, related substances); type: physicochemical
# [3] = Stability test of the crystal form A in different solvents (suspension 2 days, crystal form test); type: physicochemical; settings: for Result (crystal form): 20~30° C., 2 days
# [4] = Pharmacokinetics study in rats in vivo, intravenous administration; design: species or system SD male rats; settings: for AUC(0-t) / C0 / clearance / half-life / Vd: Sprague-Dawley (SD), rat, plasma, SD male rats, dissolved in saline; for AUC(0-t): read-out: AUC0-last Area under plasma concentration-time curve; for C0: read-out: C0 Initial concentration; for clearance: read-out: Cl Clearance rate; for half-life: read-out: T1/2 Half-life period (converted); for Vd: read-out: Vdss Apparent volume of distribution
# Description: The pharmacokinetic characteristics in rodents after intravenous administration of the compound was tested with standard scheme. Specifically, SD male rats at the age of 7-10 weeks were administered intravenously with the candidate compound in the experiment. The compound was dissolved in salt water to prepare a clear solution. The plasma samples are collected and analyzed by LC-MS/MS, and the pharmacokinetic parameters were calculated.
# [5] = test system: Klebsiella pneumoniae ATCC-BAA 2470 (NDM+); test: Drug efficacy in thigh muscle infection model in vivo (immunodeficient CD-1 female mice); settings: for Average CFU of Mouse (bacterial load of thigh muscle tissue): end point 26 h
# Description: 78 CD-1 female mice were divided into 26 cages, 3 mice per cage. The day of infection is counted as the 0 day.
# 150 mg/kg immunosuppressant cyclophosphamide was intraperitoneally injected on Day-4, and 100 mg/kg immunosuppressant cyclophosphamide was intraperitoneally injected again on Day-1 to obtain immunodeficient mice.
# The strain Klebsiella pneumoniae ATCC-BAA 2470 (NDM+) was recovered on an MHA plate on Day-1. The recovered colonies were picked and dissolved in sterile saline to prepare a bacterial solution with a concentration of 5.95E+07 CFU/mL for use in mouse thigh muscle infection. The infection starting time was counted as 0 h, and 100μL of bacterial solution is injected into the thigh muscle of each mouse at 0 h, that is, the inoculation amount is 5.95E+06 CFU/mouse. 2 h after infection, the drugs were administered according to the experimental scheme. […] The mice in the 1st to 4th cage were administered at a total daily dose of 1600 mg/kg, the mice in the 5th to 8th cage were administered at a total daily dose of 480 mg/kg, the mice in the 9th to 12th cage were administered at a total daily dose of 160 mg/kg, the mice in the 13th to 16th cage were administered at a total daily dose of 48 mg/kg, the mice in the 17th to 20th cage were administered at a total daily dose of 16 mg/kg, the mice in the 21th to 24th cage were administered at a total daily dose of 4.8 mg/kg, and each dosage group was administered separately in four different dosage dividing manners, which were q3 h, q6 h, q12 h and q24 h separately. • (3) 26 h after infection: The endpoint of the experiment was at 26 h after infection, the thigh muscle tissue of the mice of the 1st to 26th cage was taken and placed in 10 mL sterile saline, the tissue was homogenized by a homogenizer, and the homogenate was dotted on a plate with gradient dilution, two duplications for each mouse. The bacterial load of the thigh muscle tissue of the mice was counted, and for the experimental results see Table 15.
# [6] = Light 10 days (visible light intensity 5000 lux and ultraviolet intensity 90 μw/cm^2, open)
# [7] = intravenous injection at 100 mg/kg
# [8] = intravenous injection at 300 mg/kg
compound,measurement,setting,value
NC[C@@H]1CN(C[C@@H]2[C@H](NC(=O)/C(=N\OC3(C(=O)O)CC3)c3csc(N)n3)C(=O)N2S(=O)O)S(=O)(=O)N1 (stereo in doubt),Drug resistance rate (conclusion),"[1]; 2-fold of MIC, E. coli ATCC 25922",lower drug resistance rate
same,Drug resistance frequency (24 h),[1]; 2 × MIC,<3.85E−09
same,Drug resistance frequency (48 h),[1]; 2 × MIC,<3.85E−09
same,Drug resistance frequency (72 h),[1]; 2 × MIC,=3.85E−09
same,Drug resistance frequency (24 h),[1]; 4 × MIC,<3.85E−09
same,Drug resistance frequency (48 h),[1]; 4 × MIC,<3.85E−09
same,Drug resistance frequency (72 h),[1]; 4 × MIC,<3.85E−09
same,Drug resistance frequency (24 h),[1]; 8 × MIC,<3.85E−09
same,Drug resistance frequency (48 h),[1]; 8 × MIC,<3.85E−09
same,Drug resistance frequency (72 h),[1]; 8 × MIC,<3.85E−09
same,Drug resistance frequency (24 h),[1]; 16 × MIC,<3.85E−09
same,Drug resistance frequency (48 h),[1]; 16 × MIC,<3.85E−09
same,Drug resistance frequency (72 h),[1]; 16 × MIC,<3.85E−09
same,Drug resistance frequency (24 h),[1]; 32 × MIC,<3.85E−09
same,Drug resistance frequency (48 h),[1]; 32 × MIC,<3.85E−09
same,Drug resistance frequency (72 h),[1]; 32 × MIC,<3.85E−09
same,Purity %,[2]; 0 day,85.6%
same,Total impurities %,[2]; 0 day,14.4%
same,Purity %,[2]; 25° C./75% RH-5 days (open),87.4%
same,Total impurities %,[2]; 25° C./75% RH-5 days (open),12.6%
same,Purity %,[2]; 25° C./75% RH-10 days (open),85.4%
same,Total impurities %,[2]; 25° C./75% RH-10 days (open),14.6%
same,Related substances and contents (conclusion),"[2]; 60° C., 25° C./75% RH and light conditions",did not change significantly
same,Purity %,[2]; 60° C.-5 days (open),87.3%
same,Total impurities %,[2]; 60° C.-5 days (open),12.7%
same,Purity %,[2]; 60° C.-10 days (open),86.6%
same,Total impurities %,[2]; 60° C.-10 days (open),13.4%
same,Purity %,[2]; [6],86.4%
same,Total impurities %,[2]; [6],13.6%
same,Purity %,[2]; Light control -10 days,86.8%
same,Total impurities %,[2]; Light control -10 days,13.2%
same,Solid stability (conclusion),"[2]; high temperature, high humidity and light conditions",stable
same,Appearance (2 days),[3]; Acetonitrile,Suspension
same,Appearance (2 days),[3]; Acetonitrile-water(20:1),Suspension
same,Appearance (2 days),[3]; Ethanol,Suspension
same,Appearance (2 days),[3]; Ethanol-water(20:1),Suspension
same,Appearance (2 days),[3]; Ethyl acetate,Suspension
same,Appearance (2 days),[3]; Isopropanol,Suspension
same,Appearance (2 days),[3]; Isopropanol-water(20:1),Suspension
same,Appearance (2 days),[3]; Tetrahydrofuran,Suspension
same,Result (crystal form),[3]; suspended in Acetonitrile,Crystal form A
same,Result (crystal form),[3]; suspended in Acetonitrile-water(20:1),Crystal form A
same,Result (crystal form),[3]; suspended in Ethanol,Crystal form A
same,Result (crystal form),[3]; suspended in Ethanol-water(20:1),Crystal form A
same,Result (crystal form),[3]; suspended in Ethyl acetate,Crystal form A
same,Result (crystal form),[3]; suspended in Isopropanol,Crystal form A
same,Result (crystal form),[3]; suspended in Isopropanol-water(20:1),Crystal form A
same,Result (crystal form),[3]; suspended in Tetrahydrofuran,Crystal form A
same,Stability in solvents (conclusion),[3]; variety of solvents,stable
same,AUC(0-t),[4]; [7],166 µM·h
same,C0,[4]; [7],581 µM
same,clearance,[4]; [7],17.2 mL/min/kg
same,half-life,[4]; [7],18.7 min
same,Vd,[4]; [7],0.378 L/kg
same,AUC(0-t),[4]; [8],467 µM·h
same,C0,[4]; [8],1380 µM
same,clearance,[4]; [8],18.4 mL/min/kg
same,half-life,[4]; [8],21.7 min
same,Vd,[4]; [8],0.463 L/kg
same,Exposure versus dose (conclusion),"[4]; rats, intravenous",increases linearly
same,Average CFU of Mouse (bacterial load of thigh muscle tissue),"[5]; group 1: total daily dose 1600 mg/kg, single dose 60 mg/kg, q3h s.c.",2.18E+06 CFU/Mouse
same,Average CFU of Mouse (bacterial load of thigh muscle tissue),"[5]; group 2: total daily dose 1600 mg/kg, single dose 400 mg/kg, q6h s.c.",2.45E+06 CFU/Mouse
same,Average CFU of Mouse (bacterial load of thigh muscle tissue),"[5]; group 3: total daily dose 1600 mg/kg, single dose 800 mg/kg, q12h s.c.",3.80E+08 CFU/Mouse
same,Average CFU of Mouse (bacterial load of thigh muscle tissue),"[5]; group 4: total daily dose 1600 mg/kg, single dose 1600 mg/kg, q24h s.c.",9.02E+09 CFU/Mouse
same,Average CFU of Mouse (bacterial load of thigh muscle tissue),"[5]; group 5: total daily dose 480 mg/kg, single dose 60 mg/kg, q3h s.c.",2.20E+06 CFU/Mouse
same,Average CFU of Mouse (bacterial load of thigh muscle tissue),"[5]; group 6: total daily dose 480 mg/kg, single dose 120 mg/kg, q6h s.c.",2.18E+08 CFU/Mouse
same,Average CFU of Mouse (bacterial load of thigh muscle tissue),"[5]; group 7: total daily dose 480 mg/kg, single dose 240 mg/kg, q12h s.c.",2.88E+09 CFU/Mouse
same,Average CFU of Mouse (bacterial load of thigh muscle tissue),"[5]; group 8: total daily dose 480 mg/kg, single dose 480 mg/kg, q24h s.c.",8.73E+09 CFU/Mouse
same,Average CFU of Mouse (bacterial load of thigh muscle tissue),"[5]; group 9: total daily dose 160 mg/kg, single dose 20 mg/kg, q3h s.c.",2.10E+06 CFU/Mouse
same,Average CFU of Mouse (bacterial load of thigh muscle tissue),"[5]; group 10: total daily dose 160 mg/kg, single dose 40 mg/kg, q6h s.c.",4.67E+08 CFU/Mouse
same,Average CFU of Mouse (bacterial load of thigh muscle tissue),"[5]; group 11: total daily dose 160 mg/kg, single dose 80 mg/kg, q12h s.c.",7.88E+09 CFU/Mouse
same,Average CFU of Mouse (bacterial load of thigh muscle tissue),"[5]; group 12: total daily dose 160 mg/kg, single dose 160 mg/kg, q24h s.c.",1.22E+10 CFU/Mouse
same,Average CFU of Mouse (bacterial load of thigh muscle tissue),"[5]; group 13: total daily dose 48 mg/kg, single dose 6 mg/kg, q3h s.c.",4.07E+06 CFU/Mouse
same,Average CFU of Mouse (bacterial load of thigh muscle tissue),"[5]; group 14: total daily dose 48 mg/kg, single dose 12 mg/kg, q6h s.c.",1.57E+09 CFU/Mouse
same,Average CFU of Mouse (bacterial load of thigh muscle tissue),"[5]; group 15: total daily dose 48 mg/kg, single dose 24 mg/kg, q12h s.c.",8.70E+09 CFU/Mouse
same,Average CFU of Mouse (bacterial load of thigh muscle tissue),"[5]; group 16: total daily dose 48 mg/kg, single dose 48 mg/kg, q24h s.c.",1.32E+10 CFU/Mouse
same,Average CFU of Mouse (bacterial load of thigh muscle tissue),"[5]; group 17: total daily dose 16 mg/kg, single dose 2 mg/kg, q3h s.c.",7.77E+07 CFU/Mouse
same,Average CFU of Mouse (bacterial load of thigh muscle tissue),"[5]; group 18: total daily dose 16 mg/kg, single dose 4 mg/kg, q6h s.c.",2.92E+09 CFU/Mouse
same,Average CFU of Mouse (bacterial load of thigh muscle tissue),"[5]; group 19: total daily dose 16 mg/kg, single dose 8 mg/kg, q12h s.c.",6.93E+09 CFU/Mouse
same,Average CFU of Mouse (bacterial load of thigh muscle tissue),"[5]; group 20: total daily dose 16 mg/kg, single dose 16 mg/kg, q24h s.c.",1.44E+10 CFU/Mouse
same,Average CFU of Mouse (bacterial load of thigh muscle tissue),"[5]; group 21: total daily dose 4.8 mg/kg, single dose 0.6 mg/kg, q3h s.c.",7.22E+08 CFU/Mouse
same,Average CFU of Mouse (bacterial load of thigh muscle tissue),"[5]; group 22: total daily dose 4.8 mg/kg, single dose 1.2 mg/kg, q6h s.c.",4.55E+09 CFU/Mouse
same,Average CFU of Mouse (bacterial load of thigh muscle tissue),"[5]; group 23: total daily dose 4.8 mg/kg, single dose 2.4 mg/kg, q12h s.c.",7.60E+09 CFU/Mouse
same,Average CFU of Mouse (bacterial load of thigh muscle tissue),"[5]; group 24: total daily dose 4.8 mg/kg, single dose 4.8 mg/kg, q24h s.c.",1.27E+10 CFU/Mouse
same,Antibacterial effect in vivo (conclusion),"[5]; mouse thigh muscle infection, subcutaneous, 26 h after infection",significant antibacterial effect in vivo
same,Effect of shortening the administration interval (conclusion),"[5]; same daily dose, q3 h, q6 h, q12 h, q24 h",significantly improve the efficacy in vivo
same,Dose-effect relationship (conclusion),[5]; total daily dose 4.8 to 1600 mg/kg,significant
